Source: ChEMBL document CHEMBL1671783, “3-Thiomorpholin-8-oxo-8H-acenaphtho[1,2-b]pyrrole-9-carbonitrile (S1) based molecules as potent, dual inhibitors of B-cell lymphoma 2 (Bcl-2) and myeloid cell leukemia sequence 1 (Mcl-1): structure-based design and structure-activity relationship studies” (J Med Chem, 2011)
Active and inactive are the calls of the source. The calls are words filed in the database; no cut-off is given here.

Columns and labels:
[1] = biological target: T1, Induced myeloid leukemia cell differentiation protein Mcl-1 (Homo sapiens, UniProt Q07820); experiment: Displacement of FAM-Bid from human Mcl-1 after 30 mins by fluorescence polarization assay
[2] = biological target: T2, MCL1-BAK1 complex (Homo sapiens) (UniProt Q07820+Q16611); experiment: Inhibition of Mcl-1/Bak interaction in human MCF7 cells at 10 uM after 3 hrs by Western blotting; type: cell-based
SMMC-7721 [3] = experiment: Cytotoxicity against human SMMC7721 cells expressing high level of Mcl-1 after 24 hrs by MTT assay; type: functional, cell-based; conditions: SMMC-7721, 24 h
[4] = biological target: T3, Apoptosis regulator BAX/Induced myeloid leukemia cell differentiation protein Mcl-1 (Homo sapiens) (UniProt Q07820+Q07812); experiment: Inhibition of Mcl-1/Bax interaction in human SMMC7721 cells at 10 uM after 3 hrs by Western blotting; type: cell-based; conditions: SMMC-7721
MCF7 = experiment: Cytotoxicity against human MCF7 cells after 24 hrs by MTT assay; type: functional, cell-based; conditions: MCF7, 24 h
[5] = biological target: T2, MCL1-BAK1 complex (Homo sapiens); experiment: Inhibition of Mcl-1/Bak interaction in human SMMC7721 cells expressing high level of Mcl-1 at 10 uM after 3 hrs by Western blotting; type: cell-based; conditions: SMMC-7721
[6] = biological target: T1, Induced myeloid leukemia cell differentiation protein Mcl-1; experiment: Displacement of FAM-Bid from human Mcl-1 after 30 mins by ELISA
SMMC-7721 [7] = experiment: Cytotoxicity against human SMMC7721 cells after 24 hrs by MTT assay; type: functional, cell-based; conditions: SMMC-7721, 24 h
HEK293 = experiment: Cytotoxicity against human HEK293 cells after 24 hrs by MTT assay; type: cell-based; conditions: HEK293, 24 h
[8] = biological target: T3, Apoptosis regulator BAX/Induced myeloid leukemia cell differentiation protein Mcl-1 (Homo sapiens); experiment: Inhibition of Mcl-1/Bax interaction in human MCF7 cells at 10 uM after 3 hrs by Western blotting; type: cell-based
[9] = biological target: T4, Apoptosis regulator Bcl-2 (Homo sapiens, UniProt P10415); experiment: Displacement of FAM-Bid from human recombinant Bcl-2 after 30 mins by ELISA
[10] = biological target: T2, MCL1-BAK1 complex (Homo sapiens); experiment: Inhibition of Mcl-1/Bak interaction in human SMMC7721 cells at 10 uM after 3 hrs by Western blotting; type: cell-based; conditions: SMMC-7721
[11] = biological target: T4, Apoptosis regulator Bcl-2; experiment: Displacement of FAM-Bid from human Bcl-2 after 30 mins by fluorescence polarization assay
[12] = biological target: T4, Apoptosis regulator Bcl-2; experiment: Binding affinity to Bcl-2
[13] = biological target: T1, Induced myeloid leukemia cell differentiation protein Mcl-1; experiment: Binding affinity to Mcl-1

T1 sequence (Q07820 whole entry): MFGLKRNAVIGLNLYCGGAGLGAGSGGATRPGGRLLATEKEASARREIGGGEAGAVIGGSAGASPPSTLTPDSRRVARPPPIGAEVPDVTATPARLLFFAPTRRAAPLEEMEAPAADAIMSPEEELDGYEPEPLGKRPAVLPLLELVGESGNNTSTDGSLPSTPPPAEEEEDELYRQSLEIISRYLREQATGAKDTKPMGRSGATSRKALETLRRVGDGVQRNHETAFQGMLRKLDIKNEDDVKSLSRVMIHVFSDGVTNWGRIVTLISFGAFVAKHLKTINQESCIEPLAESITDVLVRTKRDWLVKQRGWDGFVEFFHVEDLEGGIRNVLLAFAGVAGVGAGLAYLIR
T4 sequence (P10415 whole entry): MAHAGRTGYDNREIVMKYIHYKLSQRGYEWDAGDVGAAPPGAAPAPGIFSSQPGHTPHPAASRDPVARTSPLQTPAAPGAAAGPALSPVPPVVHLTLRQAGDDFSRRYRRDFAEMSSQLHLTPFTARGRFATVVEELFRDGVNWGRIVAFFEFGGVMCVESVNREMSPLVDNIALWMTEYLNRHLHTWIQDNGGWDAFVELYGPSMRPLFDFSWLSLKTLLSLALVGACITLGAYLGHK
T3 sequence (Q07812 whole entry, looked up): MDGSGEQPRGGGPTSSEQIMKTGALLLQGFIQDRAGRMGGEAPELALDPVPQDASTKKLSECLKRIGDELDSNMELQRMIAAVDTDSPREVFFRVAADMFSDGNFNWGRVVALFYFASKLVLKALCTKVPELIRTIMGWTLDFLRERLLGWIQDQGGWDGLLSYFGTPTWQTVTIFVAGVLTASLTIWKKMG
T3 sequence (Q07820 whole entry, looked up): as the sequence (Q07820 whole entry) above

| Compound | Ki [1] [nM] | IC50 (SMMC-7721 [3]) [nM] | IC50 (MCF7) [nM] | IC50 (SMMC-7721 [7]) [nM] | IC50 (HEK293) [nM] | further results |
| --- | --- | --- | --- | --- | --- | --- |
| COc1ccc(Sc2ccc3c4c(cccc24)C2=NC(=O)C(C#N)=C23)cc1 | 151 |  |  |  |  |  |
| CC(C)c1ccc(Oc2ccc3c4c(cccc24)C2=NC(=O)C(C#N)=C23)cc1 | 99 |  |  |  |  |  |
| CC(C)c1ccc(Sc2ccc3c4c(cccc24)C2=NC(=O)C(C#N)=C23)cc1 | 82 |  |  |  |  |  |
| N#CC1=C2C(=NC1=O)c1cccc3c(Oc4ccc(-c5ccccc5)cc4)ccc2c13 | 1280 |  |  |  |  |  |
| CN(C)c1ccc(Sc2ccc3c4c(cccc24)C2=NC(=O)C(C#N)=C23)cc1 | 91 |  |  |  |  |  |
| N#CC1=C2C(=NC1=O)c1cccc3c(Sc4ccc(-c5ccccc5)cc4)ccc2c13 | 842 |  |  |  |  |  |
| N#CC1=C2C(=NC1=O)c1cccc3c(Sc4ccc(N)cc4)ccc2c13 |  | 16 | 12 | 18 | > 50000 | Activity [2]: Active; Activity [4]: Active; Activity [5]: inactive; IC50 [6]: 5 nM; Activity [8]: Active; IC50 [9]: 302 nM; Activity [10]: Active |
| N#CC1=C2C(=NC1=O)c1cccc3c(Sc4ccc(Br)cc4)ccc2c13 | 49 | 180 | 90 | 190 | > 50000 | Activity [4]: Active; Ki [11]: 382 nM; Activity [8]: Active |
| N#CC1=C2C(=NC1=O)c1cccc3c(Sc4ccccc4)ccc2c13 |  | > 50000 | > 50000 | > 50000 | > 50000 | Activity [2]: inactive; Activity [10]: inactive |
| COc1ccc(Oc2ccc3c4c(cccc24)C2=NC(=O)C(C#N)=C23)cc1 | 258 |  |  |  |  |  |
| Cc1ccc(Oc2ccc3c4c(cccc24)C2=NC(=O)C(C#N)=C23)cc1 | 1920 |  |  |  |  |  |
| CCC(C)(C)c1ccc(Oc2ccc3c4c(cccc24)C2=NC(=O)C(C#N)=C23)cc1 | 967 |  |  |  |  |  |
| CN(C)c1ccc(Oc2ccc3c4c(cccc24)C2=NC(=O)C(C#N)=C23)cc1 | 122 |  |  |  |  |  |
| N#CC1=C2C(=NC1=O)c1cccc3c(N4CCSCC4)ccc2c13 | 62 | 190 | 90 | 170 | > 100000 | Ki [12]: 310 nM; Activity [4]: Active; IC50 [6]: 35 nM; Ki [11]: 319 nM; Activity [8]: Active; IC50 [9]: 285 nM; Ki [13]: 58 nM |
| Cc1ccc(Sc2ccc3c4c(cccc24)C2=NC(=O)C(C#N)=C23)cc1 | 1510 |  |  |  |  |  |
| CCC(C)(C)c1ccc(Sc2ccc3c4c(cccc24)C2=NC(=O)C(C#N)=C23)cc1 | 961 | 25600 | 21300 | 11900 | > 50000 | IC50 [6]: 585 nM; IC50 [9]: 342 nM |
